Laboratory results published in paper PMC9749988 (PLOS ONE, 2022).
Read-outs that look alike come from different tables or passages of the source.

Experiments:
[1] = target: T1, A1R (Mus musculus, UniProt Q60612); assay type: binding; conditions: mean ± SEM, read-out: DPCPX equilibrium dissociation constant (KD)
T1 construct: To obtain the P1 fraction, cerebral cortex and spinal cord were homogenized in chilled sucrose; from tissue; host or cells: cerebral cortex and spinal cord membranes (P1 fraction) of SOD1-G93A transgenic and WT B6SJL mice
T1 sequence (Q60612 1-326): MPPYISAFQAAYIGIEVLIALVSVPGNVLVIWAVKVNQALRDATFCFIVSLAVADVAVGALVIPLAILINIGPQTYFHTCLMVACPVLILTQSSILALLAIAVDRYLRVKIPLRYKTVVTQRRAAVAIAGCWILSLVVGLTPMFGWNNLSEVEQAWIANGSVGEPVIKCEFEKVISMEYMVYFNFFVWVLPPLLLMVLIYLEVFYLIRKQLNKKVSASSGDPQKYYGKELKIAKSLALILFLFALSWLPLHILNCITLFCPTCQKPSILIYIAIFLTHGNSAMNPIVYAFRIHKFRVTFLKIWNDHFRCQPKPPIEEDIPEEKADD
Protocol: The radioligand-binding experiments were performed as previously described with membrane fractions (total membranes, P1 fraction). To obtain the P1 fraction, cerebral cortex and spinal cord were homogenized in chilled sucrose (pH 7.6), centrifuged at 3000 g, the pellet discarded, and the supernatant centrifuged at 14000 g (P1 fraction). The P1 fraction was then resuspended in sucrose (pH 7.6). Protein quantification was done with DC™ Protein Assay kit (Bio-Rad Laboratories, CA, USA), with bovine serum albumin (BSA) as the reference standard. […] Non-specific binding was measured in the presence of 2 μM of Xanthine Amine Congener (XAC, Tocris Bioscience, Bristol, United Kingdom), and the resulting values were subtracted from those obtained with [^3H]DPCPX to determine the specific binding and normalized for protein concentration. Results are expressed as femtomole per mg of total protein (fmol/mg).

[2] = Changes in animal body weight during chronic caffeine treatment (AUC of weight change); assay type: in vivo, mouse; conditions: for Area under the curve (AUC) of change in body weight: caffeine 0.3mg/ml in drinking water from 11th to 16-18th week of age, weight change vs first day of administration (PND 72), mean ± SEM; for Weight gain compared to vehicle treatment: caffeine 0.3mg/ml in drinking water
Protocol: (§1) During the experimental period, animals had ad libitum access to water, independently of treatment group. […] After 5–7 weeks of treatment, mice were sacrificed, cortex and spinal cord samples were removed and snap frozen in liquid nitrogen. All samples were kept at -80°C for posterior analysis.
Animal body weight was monitored throughout the chronic drug administration experiments, with animals being weighed once every 2 to 3 days. We used weight changes a proxy of the disease state, as it was described that SOD1^G93A mice show a gradual loss of weight through time, and that these correlate with other disease states indicators. We decided not to use behavioral data (eg RotaRod performance) to avoid changes in protein levels or expression due to physical exercise, which would have even more impact in SOD1^G93A mice than in WT, thus introducing an additional variable and therefore making comparisons more difficult.
Because SOD1^G93A tend to generally weight less than their WT counterparts, group comparisons of absolute weight were deemed inadequate. As such, changes in the body weight of each animal were calculated by subtracting the weight of that animal on the first day of drug administration (72nd day of life) to its weight at each subsequent time-point, with results being expressed in grams. To facilitate comparison of treatment effects, the area under the curve (AUC) of these changes in weight was obtained.

[3] = test system: VEGFA; experiment: VEGFA protein levels by ELISA after chronic caffeine treatment; assay type: in vivo, mouse; conditions: for VEGFA protein levels: caffeine 0.3mg/ml in drinking water from 11 weeks, mean ± SEM
Protocol: (§2) Cortex and spinal cord samples were homogenized in […] (RIPA) lysis buffer (1M Tris pH 8.0, 0.5M EDTA pH 8.0, 5M NaCl, 10% NP-40, 50% Glycerol), supplemented with cOmpleteTM Mini protease inhibitor cocktail tablets (Roche, Penzberg, Germany) and centrifuged. Protein quantification was performed using the DC™ Protein Assay kit (Bio-Rad Laboratories, Hercules, CA, USA). VEGFA, VEGFR-1 and VEGFR-2 protein levels were quantified with the DuoSet® ELISA Development System Kit (R&D Systems, Abingdon, UK), according to manufacturer instructions. Assessment of VEGFB protein levels was performed with the Mouse VEGFB ELISA Kit (Thermo Scientific, Massachusetts, USA), also according to manufacturer instructions. […] To improve BDNF detection, samples were acidified with HCl 1M, until reaching approximately pH 2.6. After 10 to 20 minutes, NaOH was added to neutralize the samples to pH 7.6. Absorbances were read in a microplate reader (Microplate Reader TECAN Infinite M200, Männedorf, Switzerland) at 450nm and 540nm, with the latter being subtracted to the former with the goal of correcting for differences in plate background. Results are expressed as picograms per milligram of total protein (pg/mg).
as §1

[4] = test system: VEGFB; experiment: VEGFB protein levels by ELISA after chronic caffeine treatment; assay type: in vivo, mouse; conditions: caffeine 0.3mg/ml in drinking water from 11 weeks, mean ± SEM
Protocol: as §2, §1

[5] = test system: VEGFR-1; experiment: VEGFR-1 protein levels by ELISA after chronic caffeine treatment; assay type: in vivo, mouse; conditions: caffeine 0.3mg/ml in drinking water from 11 weeks, mean ± SEM
Protocol: as §2, §1

[6] = test system: VEGFR-2; experiment: VEGFR-2 protein levels by ELISA after chronic caffeine treatment; assay type: in vivo, mouse; conditions: caffeine 0.3mg/ml in drinking water from 11 weeks, mean ± SEM
Protocol: as §2
After 5–7 weeks of treatment, mice were sacrificed, cortex and spinal cord samples were removed and snap frozen in liquid nitrogen. All samples were kept at -80°C for posterior analysis.

[7] = test system: BDNF; experiment: BDNF protein levels by ELISA after chronic caffeine treatment; assay type: in vivo, mouse; conditions: caffeine 0.3mg/ml in drinking water from 11 weeks, mean ± SEM
Protocol: as §2, §1

[8] = Water intake during chronic caffeine treatment; assay type: in vivo; conditions: WT and SOD1^G93A mice; tap water or caffeine (0.3mg/ml); approximately 5–6 mL per day per mouse
Protocol: as §1

[9] = test system: SOD1^G93A mice; conditions: caffeine 0.3mg/ml in drinking water from 11th week of age
[10] = test system: SOD1^G93A mice; conditions: cited from earlier work

Question: Which results are given for `CCCn1c(=O)c2[nH]c(C3CCCC3)nc2n(CCC)c1=O` [DPCPX, [^3H]-8-Cyclopentyl-1,3-dipropylxanyine]?
Answer: Kd ([1]; cortex, WT mice age-matched to pre-symptomatic (4–6 weeks old)): 3.1 ± 1.55 nM; Kd ([1]; cortex, WT mice age-matched to symptomatic (12–14 weeks old)): 7.98 ± 1.01 nM; Kd ([1]; cortex, pre-symptomatic SOD1^G93A mice (4–6 weeks old)): 4.97 ± 1.07 nM; Kd ([1]; cortex, symptomatic SOD1^G93A mice (12–14 weeks old)): 4.43 ± 0.821 nM; Kd ([1]; spinal cord, WT mice age-matched to pre-symptomatic (4–6 weeks old)): 15 ± 3.83 nM; Kd ([1]; spinal cord, WT mice age-matched to symptomatic (12–14 weeks old)): 4.32 ± 0.924 nM; Kd ([1]; spinal cord, pre-symptomatic SOD1^G93A mice (4–6 weeks old)): 12 ± 4.55 nM; Kd ([1]; spinal cord, symptomatic SOD1^G93A mice (12–14 weeks old)): 11.1 ± 3.47 nM

Question: With `Cn1c(=O)c2c(ncn2C)n(C)c1=O` [caffeine] as the compound, how does the “Area under the curve (AUC) of change in body weight” value ([2]; SOD1^G93A mice, SOD-VEH 12.90 ± 3.033) read?
Answer: Its value is 22.70 ±3.795.

Question: What about the “Weight gain compared to vehicle treatment” value ([2]; SOD1^G93A mice, not statistically significant (p = 0.058)) of the same compound?
Answer: The value was “trend towards an increase in weight gain”.

Question: And the “Area under the curve (AUC) of change in body weight” value ([2]; WT mice, WT-VEH 71.20 ± 2.011)?
Answer: The value was 83.40 ± 4.743.

Question: What about the “Weight gain compared to vehicle treatment” value ([2]; WT mice, p = 0.039) of the same compound?
Answer: Its value is “small but statistically significant increase in weight gain”.

Question: What about the “Effect of caffeine upon VEGFA protein levels” value ([3]; cortex, WT and SOD1^G93A mice 16–18 weeks old, caffeine 0.3mg/ml in drinking water) of the same compound?
Answer: The value was “absence of effect”.

Question: What about the VEGFA protein levels ([3]; cortex, WT mice 16–18 weeks old, WT-VEH 3.62) of the same compound?
Answer: Its VEGFA protein levels is 2.05 ± 0.324 pg/mg protein.

Question: And the VEGFA protein levels ([3]; spinal cord, SOD1^G93A mice 16–18 weeks old, SOD-VEH 4.151 ± 0.820)?
Answer: The VEGFA protein levels was 3.743 ± 1.018 pg/mg protein.

Question: And the VEGFA protein levels ([3]; spinal cord, WT mice 16–18 weeks old, WT-VEH 2.798)?
Answer: Its VEGFA protein levels is 3.774 ± 0.451 pg/mg protein.

Question: What about the VEGFB protein levels ([4]; cortex, SOD1^G93A mice 16–18 weeks old, SOD-VEH 164.7 ± 10.79) of the same compound?
Answer: Its VEGFB protein levels is 157.8 ± 13.94 pg/mg protein.

Question: What about the VEGFB protein levels ([4]; cortex, WT mice 16–18 weeks old, WT-VEH 166.8 ± 20.91) of the same compound?
Answer: The VEGFB protein levels was 170.7 ± 33.07 pg/mg protein.

Question: And the VEGFB protein levels ([4]; spinal cord, SOD1^G93A mice 16–18 weeks old, SOD-VEH 545.6 ± 35.13)?
Answer: Its VEGFB protein levels is 545.3 ± 55.72 pg/mg protein.

Question: What about the VEGFB protein levels ([4]; spinal cord, WT mice 16–18 weeks old, WT-VEH 366.0 ± 64.68) of the same compound?
Answer: The VEGFB protein levels was 366.5 ± 90.97 pg/mg protein.

Question: And the VEGFR-1 protein levels ([5]; cortex, SOD1^G93A mice 16–18 weeks old, SOD-VEH 905.1 ± 30.64)?
Answer: The VEGFR-1 protein levels was 926.5 ± 89.92 pg/mg protein.

Question: And the VEGFR-1 protein levels ([5]; cortex, WT mice 16–18 weeks old, WT-VEH 1078 ± 90.79)?
Answer: Its VEGFR-1 protein levels is 1004 ± 146.9 pg/mg protein.

Question: And the VEGFR-1 protein levels ([5]; spinal cord, SOD1^G93A mice 16–18 weeks old, SOD-VEH 919.3 ± 50.34)?
Answer: Its VEGFR-1 protein levels is 1048 ± 115.2 pg/mg protein.

Question: And the VEGFR-2 protein levels ([6]; cortex, SOD1^G93A mice 16–18 weeks old, SOD-VEH 45.41 ± 5.938)?
Answer: The VEGFR-2 protein levels was 50.51 ± 6.925 pg/mg protein.

Question: What about the VEGFR-2 protein levels ([6]; cortex, WT mice 16–18 weeks old, WT-VEH 45.14 ± 4.019) of the same compound?
Answer: The VEGFR-2 protein levels was 39.02 ± 4.077 pg/mg protein.

Question: What about the VEGFR-2 protein levels ([6]; spinal cord, WT mice 16–18 weeks old, WT-VEH 108 ± 32.5) of the same compound?
Answer: The VEGFR-2 protein levels was 121 ± 40.6 pg/mg protein.

Question: And the BDNF protein levels ([7]; cortex, SOD1^G93A mice 16–18 weeks old, SOD-VEH 29.75 ± 4.560, p = 0.042)?
Answer: The BDNF protein levels was 13.85 ± 2.372 pg/mg protein.

Question: And the BDNF protein levels ([7]; cortex, WT mice 16–18 weeks old, WT vehicle 20.96 ± 1.403, p = 0.020)?
Answer: The BDNF protein levels was 40.24 ± 6.342 pg/mg protein.

Question: And the BDNF protein levels ([7]; spinal cord, SOD1^G93A mice 16–18 weeks old, SOD-VEH 19.34, p = 0.038, high variability)?
Answer: The BDNF protein levels was 49.10 ± 10.82 pg/mg protein.

Question: And the BDNF protein levels ([7]; spinal cord, WT mice 16–18 weeks old)?
Answer: The BDNF protein levels was 14.37 ± 4.488 pg/mg protein.

Question: What about the “Water intake, difference between treatment groups” value [8] of the same compound?
Answer: The value was “No substantial differences”.

Question: And the “Symptoms on visual inspection” value [9]?
Answer: The value was “trend to symptoms aggravation”.

Question: And the “Time to humane endpoint (onset of hindlimb paresis) vs vehicle treated SOD1^G93A mice” value [9]?
Answer: Its value is “slightly earlier”.

Question: And the “Effect on ALS symptoms” value [10]?
Answer: The value was “exacerbates ALS symptoms”.
